How the values were obtained:
ErbB2 = molecular target: T1, ErbB2 (Homo sapiens, UniProt P04626); experiment: ErbB-2 substrate phosphorylation assay (HTRF); type: biochemical
T1 construct: made in house; host or cells: baculovirus expression system
Summary of the method: (§1)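 Baculovirus-expressed EGFR (0.8 nM) or ErbB2 (10 nM) in enzyme mix, preincubated 1 h at 20 °C with compound (0.00027–47.6 μM final), then 90 min at 20 °C with substrate mix of 20 μM ATP, 0.8 uM biotinylated Peptide C, MnCl2, MOPS pH 7.5. Phosphotyrosine by HTRF; pIC50 reported.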

SK-MEL-3 tumor cells = experiment: Cell growth inhibition assay (CellTiter-Glo), SK-MEL-3; type: cell-based, Human; conditions: for IC50: Homo sapiens, SK-MEL3
Protocol: (§2) Human breast tumor cells (BT474) were cultured in RPMI (Mediatech […]), containing 10% FBS (JRH Biosciences 12176) and 1% penicillin-streptomycin (Invitrogen 15140). Human head and neck tumor cells (HN5) were cultured in high glucose DMEM (Mediatech 50-013-PB) containing 10% FBS and 1% penicillin-streptomycin. Human colon tumor cells (Colo205) were cultured in RPMI (Mediatech 50-020-PB) containing 10% FBS and 1% penicillin-streptomycin. Human melanoma cancer cells (SK-MEL-28) were cultured in EMEM with nonessential amino acids (Mediatech 50-011-PB) containing 10% FBS, 1% sodium pyruvate (JT Baker 3354-04), and 1% penicillin-streptomycin. Human melanoma cancer cells (A375P F11s) were cultured in RPMI (Mediatech 50-020-PB) containing 10% FBS, 1% sodium pyruvate, and 1% penicillin-streptomycin. Human colon cancer cells (HT-29) were cultured in high glucose DMEM (Mediatech 50-013-PB) containing 10% FBS and 1% penicillin-streptomycin. Human melanoma cancer cells (SK-MEL-3) were cultured in McCoy's 5A (50-025-PB) containing 15% FBS, and 1% penicillin-streptomycin. All cell lines were maintained at 37° C. in a humidified 5% CO2, 95% air incubator. Cells were harvested using trypsin/EDTA (Invitrogen 25200), counted using a haemocytometer, and plated. For 96-well assays (using white full-area NUNC plates cat. #136102), cells were plated in 105 μL at the following densities (cells/well): HNS, 500; Colo 205, 500; SK-MEL-28, 500; A375P F11s, 500; HT-29, 500; SK-MEL-3, 500; and BT474, 3000. For 384-well assays (white full-area NUNC plates, cat. #781080), cells were plated in 48 μL at the following densities (cells/well): HNS, 500; Colo205, 500; SK-MEL-28, 500; A375P F11s, 500; HT-29, 500; SK-MEL-3, 500; and BT474, 2000.
(§3) The next day, compounds were diluted as follow: For 96-well assays, 13.5 μL of compound in DMSO were diluted using nine (9) serial 1:3 dilutions of 4.5 μL in 9 of DMSO. Medium (270 μL/well of RPMI with 10% FBS and 1% penicillin-streptomycin) was added to the plates. Aliquots (7 μL) were added to cells in the final assay giving a final DMSO concentration of 0.2%. For 384-well assays, 15 μL of compound in DMSO were diluted using nine (9) serial 1:3 dilutions of 5 μL in 10 μL of DMSO, followed by a further dilution of 5 μL of compound with 95 μL of medium, of which 2 μL were added to cells in the final assay giving a final DMSO concentration of 0.2%. Cells were incubated at 37° C., 5% CO2 for 3 days.
(§4) Total ATP was measured (as a surrogate estimate of cell number) using CellTiter-Glo® reagent (Promega G7571). Briefly, plates were removed from the incubator and allowed to equilibrate to room temperature for 30 minutes. CellTiter-Glo® (25 μL or 55 μL for 384-well or 96-well assays, respectively) reagent was added to each well and plates were shaken on an orbital plate shaker for 2 minutes. Plates were incubated without shaking for a further 30 minutes and read on an LJL Analyst GT reader in luminometer mode with an integration time of 0.5 seconds per well. Percent inhibition of cell growth was calculated relative to DMSO vehicle-treated control wells. Concentration of compound required to give 50% inhibition of vehicle-treated control cell growth (IC50) was interpolated using a 4-parameter fit for determining IC50 using the following equation: Y=A +((B−A)/(1+((C/X)̂D))) where […].

EGFR = molecular target: T2, EGFR (Homo sapiens, UniProt P00533); experiment: EGFR substrate phosphorylation assay (HTRF); type: biochemical
T2 construct: made in house; host or cells: baculovirus expression system
T2 sequence (P00533 25-1210): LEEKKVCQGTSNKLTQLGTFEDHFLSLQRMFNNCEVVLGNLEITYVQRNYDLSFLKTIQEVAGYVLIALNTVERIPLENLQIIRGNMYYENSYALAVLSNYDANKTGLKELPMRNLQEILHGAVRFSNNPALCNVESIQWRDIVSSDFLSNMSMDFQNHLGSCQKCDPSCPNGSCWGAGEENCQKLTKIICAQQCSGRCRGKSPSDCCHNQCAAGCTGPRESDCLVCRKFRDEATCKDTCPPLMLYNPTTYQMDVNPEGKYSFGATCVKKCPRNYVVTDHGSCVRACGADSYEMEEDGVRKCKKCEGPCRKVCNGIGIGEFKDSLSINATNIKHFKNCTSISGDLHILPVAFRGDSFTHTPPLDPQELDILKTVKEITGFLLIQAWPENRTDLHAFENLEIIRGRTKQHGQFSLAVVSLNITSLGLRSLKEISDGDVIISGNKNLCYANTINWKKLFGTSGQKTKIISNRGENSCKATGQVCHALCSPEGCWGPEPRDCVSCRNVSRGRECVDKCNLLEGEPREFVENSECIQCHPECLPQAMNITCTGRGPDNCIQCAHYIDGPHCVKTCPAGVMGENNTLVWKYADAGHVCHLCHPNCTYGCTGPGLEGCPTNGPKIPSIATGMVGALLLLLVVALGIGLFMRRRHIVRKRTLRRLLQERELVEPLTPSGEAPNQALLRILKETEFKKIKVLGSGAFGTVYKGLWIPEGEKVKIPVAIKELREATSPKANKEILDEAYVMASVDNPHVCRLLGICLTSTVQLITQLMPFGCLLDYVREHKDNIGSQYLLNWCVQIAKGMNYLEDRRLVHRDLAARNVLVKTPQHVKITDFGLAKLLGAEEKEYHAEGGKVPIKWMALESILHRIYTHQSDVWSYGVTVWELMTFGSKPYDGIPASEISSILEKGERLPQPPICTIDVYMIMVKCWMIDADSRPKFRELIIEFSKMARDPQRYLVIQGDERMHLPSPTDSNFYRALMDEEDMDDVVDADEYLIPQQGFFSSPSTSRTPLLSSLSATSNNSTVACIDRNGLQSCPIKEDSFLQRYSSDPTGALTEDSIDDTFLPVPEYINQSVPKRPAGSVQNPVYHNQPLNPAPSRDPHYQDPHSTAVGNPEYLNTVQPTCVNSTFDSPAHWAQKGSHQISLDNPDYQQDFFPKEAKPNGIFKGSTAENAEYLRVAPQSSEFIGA
Summary of the method: as §1

HT-29 tumor cells = experiment: Cell growth inhibition assay (CellTiter-Glo), HT-29; type: cell-based, Human; conditions: for IC50: Homo sapiens
Protocol: as §2, §3, §4

HN5 tumor cells = experiment: Cell growth inhibition assay (CellTiter-Glo), HN5; type: cell-based, Human; conditions: Homo sapiens, 72 h; 3 days incubation
Protocol: as §2, §3, §4

A375P F11s tumor cells = experiment: Cell growth inhibition assay (CellTiter-Glo), A375P F11s; type: cell-based, Human; conditions: for IC50: Homo sapiens
Protocol: as §2, §3, §4

Colo205 tumor cells = experiment: Cell growth inhibition assay (CellTiter-Glo), Colo205; type: cell-based, Human; conditions: Homo sapiens, COLO 205, 72 h; 3 days incubation
Summary of the method: (§5)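 Readout was CellTiter-Glo luminescence (total ATP, surrogate for cell number) after 3-day exposure at 37° C, 5% CO2 to 1:3 serial compound dilutions in 0.2% final DMSO. Seeding was 500 cells/well; IC50 derived by 4-parameter fit relative to vehicle-treated wells.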

SK-MEL-28 tumor cells = experiment: Cell growth inhibition assay (CellTiter-Glo), SK-MEL-28; type: cell-based, Human; conditions: Homo sapiens, SK-MEL-28, 72 h; 3 days incubation
Summary of the method: as §5

BT474 tumor cells = experiment: Cell growth inhibition assay (CellTiter-Glo), BT474; type: cell-based, Human; conditions: Homo sapiens, BT-474, 72 h, 3 days incubation
Protocol: as §2, §3, §4

B-Raf = B-Raf (Homo sapiens, UniProt P15056); experiment: B-Raf Accelerated MEK ATPase assay (BRAMA), Method A or B; type: biochemical; conditions: Method B: final MEK 150 nM, single end point read
Sequence of B-Raf (P15056 whole entry): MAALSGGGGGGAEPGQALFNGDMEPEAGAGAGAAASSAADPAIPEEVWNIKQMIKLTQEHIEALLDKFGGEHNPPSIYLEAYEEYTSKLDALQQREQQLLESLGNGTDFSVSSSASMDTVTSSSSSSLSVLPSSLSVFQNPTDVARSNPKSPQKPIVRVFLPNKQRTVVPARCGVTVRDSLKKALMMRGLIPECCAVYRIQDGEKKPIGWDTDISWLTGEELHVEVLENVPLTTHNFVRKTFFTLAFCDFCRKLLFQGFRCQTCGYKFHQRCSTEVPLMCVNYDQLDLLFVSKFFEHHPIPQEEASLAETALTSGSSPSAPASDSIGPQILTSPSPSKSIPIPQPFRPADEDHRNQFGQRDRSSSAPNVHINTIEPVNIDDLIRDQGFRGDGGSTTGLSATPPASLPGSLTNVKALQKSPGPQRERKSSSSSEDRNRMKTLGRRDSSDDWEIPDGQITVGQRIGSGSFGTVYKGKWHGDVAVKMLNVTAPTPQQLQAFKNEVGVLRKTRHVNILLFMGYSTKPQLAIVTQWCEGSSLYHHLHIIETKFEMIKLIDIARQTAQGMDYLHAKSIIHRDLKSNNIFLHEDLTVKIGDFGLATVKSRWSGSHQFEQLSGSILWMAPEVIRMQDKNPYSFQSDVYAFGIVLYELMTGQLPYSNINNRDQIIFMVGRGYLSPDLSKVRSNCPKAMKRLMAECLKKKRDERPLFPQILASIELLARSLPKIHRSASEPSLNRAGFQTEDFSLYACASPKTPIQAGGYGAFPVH
Summary of the method: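 ADP production, initiated by catalytic activated Raf with unphosphorylated MEK, is followed by NADH oxidation through a PK/LDH coupled system. Method B differs from the kinetic Method A by a single end-point read and 150 nM final MEK.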

T1 sequence (P04626 23-1255): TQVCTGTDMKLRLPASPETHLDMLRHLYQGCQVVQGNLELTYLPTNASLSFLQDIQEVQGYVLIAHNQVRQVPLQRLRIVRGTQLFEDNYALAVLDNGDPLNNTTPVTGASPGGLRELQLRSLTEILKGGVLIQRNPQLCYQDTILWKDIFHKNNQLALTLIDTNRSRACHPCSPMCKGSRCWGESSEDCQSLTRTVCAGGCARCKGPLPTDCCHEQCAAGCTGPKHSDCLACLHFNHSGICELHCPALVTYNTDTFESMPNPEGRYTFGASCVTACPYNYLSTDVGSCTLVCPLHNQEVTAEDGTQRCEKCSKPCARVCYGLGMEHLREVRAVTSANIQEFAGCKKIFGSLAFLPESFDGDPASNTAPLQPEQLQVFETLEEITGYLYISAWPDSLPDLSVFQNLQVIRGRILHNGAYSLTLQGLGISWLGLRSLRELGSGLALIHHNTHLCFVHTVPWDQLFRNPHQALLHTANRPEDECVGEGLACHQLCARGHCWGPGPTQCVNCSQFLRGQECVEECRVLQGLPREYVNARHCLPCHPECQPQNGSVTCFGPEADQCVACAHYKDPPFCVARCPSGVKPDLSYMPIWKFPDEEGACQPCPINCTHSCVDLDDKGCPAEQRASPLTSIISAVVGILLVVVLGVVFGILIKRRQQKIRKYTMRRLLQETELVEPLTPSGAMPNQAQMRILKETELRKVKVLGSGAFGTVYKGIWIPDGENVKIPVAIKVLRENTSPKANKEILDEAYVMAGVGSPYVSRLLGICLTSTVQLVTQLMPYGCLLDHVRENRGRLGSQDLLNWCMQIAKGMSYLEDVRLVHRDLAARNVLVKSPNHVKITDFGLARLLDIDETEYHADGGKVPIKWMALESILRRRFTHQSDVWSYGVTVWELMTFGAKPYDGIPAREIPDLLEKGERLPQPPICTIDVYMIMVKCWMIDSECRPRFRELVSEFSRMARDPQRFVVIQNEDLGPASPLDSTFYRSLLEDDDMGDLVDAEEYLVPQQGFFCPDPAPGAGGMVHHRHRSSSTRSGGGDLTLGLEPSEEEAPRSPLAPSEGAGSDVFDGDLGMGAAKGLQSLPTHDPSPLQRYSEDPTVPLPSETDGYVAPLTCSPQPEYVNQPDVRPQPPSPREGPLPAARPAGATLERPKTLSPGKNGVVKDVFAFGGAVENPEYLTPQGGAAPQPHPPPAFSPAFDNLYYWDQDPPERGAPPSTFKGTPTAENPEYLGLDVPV

| SMILES | IC50 (ErbB2) [nM] | IC50 (SK-MEL-3 tumor cells) [nM] | IC50 (EGFR) [nM] | IC50 (HT-29 tumor cells) [nM] | IC50 (HN5 tumor cells) [nM] | IC50 (A375P F11s tumor cells) [nM] | IC50 (Colo205 tumor cells) [nM] | IC50 (SK-MEL-28 tumor cells) [nM] | IC50 (BT474 tumor cells) [nM] | Activity in SK-MEL-3 Tumor Cells (SK-MEL-3 tumor cells) | Activity in HT-29 Tumor Cells (HT-29 tumor cells) | Activity in A375P F11s Tumor Cells (A375P F11s tumor cells) | IC50 (B-Raf) [nM] |
| --- | --- | --- | --- | --- | --- | --- | --- | --- | --- | --- | --- | --- | --- |
| CCc1nc(-c2cccc(NS(=O)(=O)c3ccccc3)c2)c(-c2ccnc(Nc3cc(OC)c(OC)c(OC)c3)n2)s1 [Example 2, N-{3-[2-Ethyl-5-(2-{[3,4,5-tris(methyloxy)phenyl]amino}-4-pyrimidinyl)-1,3-thiazol-4-yl]phenyl}benzenesulfonamide] | > 1000 | < 100 | > 1000 | 100 to 1000 | 100 to 1000 | < 100 | < 100 | < 100 | > 1000 | – | – | – | – |
| COCCN1CCN(c2ccc(Nc3nccc(-c4sc(C(C)C)nc4-c4cccc(NS(=O)(=O)c5ccccc5)c4)n3)cn2)CC1.Cl [Example 7] | – | – | – | – | – | – | – | – | – | +++ (activity of less than 100 nM in SK-MEL-3 tumor cells) | +++ (activity of less than 100 nM in HT-29 tumor cells) | +++ (activity of less than 100 nM in A375P F11s tumor cells) | – |
| CCc1nc(-c2ccc(F)c(NS(=O)(=O)c3ccccc3)c2)c(-c2ccnc(Nc3ccc(N4CCN(C(C)=O)CC4)nc3)n2)s1 [Example 66] | > 1000 | – | > 1000 | > 1000 | > 1000 | – | 100 to 1000 | 100 to 1000 | > 1000 | – | – | – | < 100 |
| CC(C)(F)c1nc(-c2cccc(NS(=O)(=O)c3c(F)cccc3F)c2)c(-c2ccnc(Nc3ccc(N4CCN(CCF)CC4)c(F)c3)n2)s1 [Example 94] | > 1000 | – | > 1000 | < 100 | > 1000 | – | < 100 | < 100 | > 1000 | – | – | – | 100 to 1000 |
| COc1cc(C2CCN(CCS(C)(=O)=O)CC2)c(C)cc1Nc1nccc(-c2sc(C(C)C)nc2-c2cccc(NS(=O)(=O)c3c(F)cccc3F)c2)n1 [Example 115] | > 1000 | 100 to 1000 | > 1000 | 100 to 1000 | – | 100 to 1000 | 100 to 1000 | < 100 | – | – | – | – | < 100 |
| COc1cc(OC2CCN(CCS(C)(=O)=O)CC2)c(C)cc1Nc1nccc(-c2sc(C(C)C)nc2-c2cccc(NS(=O)(=O)c3c(F)cccc3F)c2)n1 [Example 158] | < 100 | – | < 100 | – | – | – | < 100 | < 100 | – | – | – | – | < 100 |
| COc1cc(N2CCC3(CC2)CCN(S(C)(=O)=O)CC3)c(C)cc1Nc1nccc(-c2sc(C(C)C)nc2-c2cccc(NS(=O)(=O)c3c(F)cccc3F)c2F)n1 [Example 160] | 100 to 1000 | – | 100 to 1000 | – | – | – | < 100 | 100 to 1000 | – | – | – | – | < 100 |
| COc1cc(N2CCN(CCS(C)(=O)=O)CC2)c(C)cc1Nc1nccc(-c2sc(CC(C)C)nc2-c2cccc(NS(=O)(=O)c3c(F)cccc3F)c2)n1 [Example 161] | < 100 | – | < 100 | – | – | – | < 100 | 100 to 1000 | – | – | – | – | 100 to 1000 |
| COc1cc(N2CCN(CCS(C)(=O)=O)CC2)c(C)cc1Nc1nccc(-c2scnc2-c2cccc(NS(=O)(=O)c3c(F)cccc3F)c2)n1 [Example 163] | < 100 | – | < 100 | – | – | – | 100 to 1000 | 100 to 1000 | – | – | – | – | 100 to 1000 |
| COc1ccc(S(C)(=O)=O)cc1Nc1nccc(-c2sc(N3CCOCC3)nc2-c2cccc(NS(=O)(=O)c3c(F)cccc3F)c2Cl)n1 [Example 164] | > 1000 | – | > 1000 | – | – | – | < 100 | < 100 | – | – | – | – | < 100 |
| COc1ccc(S(C)(=O)=O)cc1Nc1nccc(-c2sc(C(C)C)nc2-c2cccc(NS(=O)(=O)c3c(F)cccc3F)c2F)n1 [Example 165] | 100 to 1000 | – | 100 to 1000 | – | – | – | < 100 | < 100 | – | – | – | – | < 100 |
| COc1c(NS(=O)(=O)c2c(F)cccc2F)cccc1-c1nc(N2CCOCC2)sc1-c1ccnc(Nc2ccc3c(c2)OCCO3)n1 [Example 170] | > 1000 | 100 to 1000 | > 1000 | 100 to 1000 | – | 100 to 1000 | < 100 | 100 to 1000 | – | – | – | – | < 100 |
| COc1cc(OCCN2CCOCC2)c(C)cc1Nc1nccc(-c2sc(C(C)C)nc2-c2cccc(NS(=O)(=O)c3c(F)cccc3F)c2F)n1 [Example 171] | 100 to 1000 | – | 100 to 1000 | – | – | – | < 100 | < 100 | – | – | – | – | < 100 |
| COc1ccc(S(C)(=O)=O)cc1Nc1nccc(-c2sc(C(C)C)nc2-c2cccc(NS(=O)(=O)c3c(F)cccc3F)n2)n1 [Example 172] | < 100 | – | 100 to 1000 | – | – | – | > 1000 | > 1000 | – | – | – | – | < 100 |
| COc1cc(N2CCN(CCS(C)(=O)=O)CC2)c(C)cc1Nc1nccc(-c2sc(C(C)C)nc2-c2cccc(NS(=O)(=O)c3cnn(C)c3)c2)n1 [Example 173] | 100 to 1000 | – | > 1000 | – | – | – | 100 to 1000 | 100 to 1000 | – | – | – | – | 100 to 1000 |
| CC(C)c1nc(-c2cccc(NS(=O)(=O)c3cnn(C)c3)c2)c(-c2ccnc(Nc3ccc(N4CCOCC4)nc3)n2)s1 [Example 174] | > 1000 | – | > 1000 | – | – | – | < 100 | < 100 | – | – | – | – | < 100 |
| COc1cc(N2CCN(CCS(C)(=O)=O)CC2)c(C)cc1Nc1nccc(-c2sc(C3CC3)nc2-c2cccc(NS(=O)(=O)c3c(F)cccc3F)c2)n1 [Example 175] | < 100 | – | 100 to 1000 | – | – | – | < 100 | 100 to 1000 | – | – | – | – | 100 to 1000 |
| CC(C)c1nc(-c2cccc(NS(=O)(=O)c3c(F)cccc3F)c2)c(-c2ccnc(Nc3ccc(N4CCN(CCS(C)(=O)=O)CC4)cc3C(F)(F)F)n2)s1 [Example 176] | > 1000 | – | > 1000 | – | – | – | < 100 | < 100 | – | – | – | – | < 100 |
| COc1cc(N2CCN(CCS(C)(=O)=O)CC2)c(C)cc1Nc1nccc(-c2sc(C3CCOCC3)nc2-c2cccc(NS(=O)(=O)c3c(F)cccc3F)c2F)n1 [Example 177] | < 100 | – | < 100 | – | – | – | < 100 | < 100 | – | – | – | – | < 100 |

From patent publication US20110319392A1, “Thiazole Sulfonamide And Oxazole Sulfonamide Kinase Inhibitors” (priority 2009, published 2011)
